SMILES strings stand for the structures.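 All cell lines were grown in 96-well plates and treated with compound for 48 hours. GI50: concentration for 50% inhibition of growth.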 Calls of active or inactive are those of the source. Rule as the data show it: active = GI50 up to about 1.1 µM and inactive = higher. Some results are limits rather than exact numbers.

Holding throughout (experiment): DTP human tumour cell line panel, 48 h
For test [1], the system named is NCI-H460.
Test [2] deals with SF-539.
The test system of test [3] is 786-0.
For test [4], the system named is HOP-62.
The test system of test [5] is CAKI-1.
Test [6] concerns K562.
Test [7] concerns SK-MEL-5.
Test [8] has as its system HT-29.
The test system of test [9] is HCT-15.
The subject of test [10] is A498.
Test [11] relates to TK-10.
For test [12], the system named is CCRF-CEM.
The test system of test [13] is NCI-H23.
The test system of test [14] is KM12.
Test [15] concerns HCC 2998.
Test [16] has as its system M14.
The test system of test [17] is HOP-92.
Test [18] has as its system OVCAR-3.

With `Cc1nc2ccccc2c(=O)n1/N=C(\N=N\c1cc(Cl)ccc1Cl)c1ccc(N(C)C)cc1`, the GI50 in test [1] was 45.7 µM (inactive); in test [2], 33 µM (inactive); in [3], 73.5 µM (inactive); in [4], 26.9 µM (inactive); in test [5], 34 µM (inactive); in test [6] it was 57.1 µM (inactive). Besides, the GI50 in test [7] is 27.2 µM (inactive); in test [8] it was 42 µM (inactive); in test [9] it was more than 100 µM; in [10], 60.4 µM (inactive); in [11], 88.3 µM (inactive); in test [12], 52.7 µM (inactive). Moreover, the GI50 in test [13] is 34.8 µM (inactive).
As for `CCOC(=O)Cc1nc(/C(C#N)=C/c2ccco2)[nH]c(=O)c1C#N`, the GI50 in test [1], in test [2], in test [3], in test [14], in [4] and in [15] was > 100 µM (inactive) each time. The GI50 in test [16], in test [17], in test [5], in test [6], in test [7] and in [18] was > 100 µM (inactive) in each case. Moreover, the GI50 in test [8] is > 100 µM (inactive); in test [9] it was more than 100 µM; in test [11], > 100 µM (inactive); in test [12], > 100 µM (inactive); in test [13], > 100 µM (inactive).
As to `Cc1c[nH]c2c1C13CC1CN(C(=O)c1cc4cc(NC(=O)c5cc6ccccc6o5)ccc4[nH]1)C3=CC2=O` (stereo unspecified), the concentration for 50% growth inhibition (GI50) in test [1], in test [2], in test [3], in [14], in test [4] and in [15] was < 0.001 µM (active) each time. In addition, the GI50 in test [16] was < 0.001 µM (active); in [5], < 0.001 µM (active); in test [6] it was < 0.001 µM (active); in test [7], < 0.001 µM (active); in test [8], < 0.001 µM (active); in test [9] it was less than 0.001 µM. Besides, the GI50 in test [10], in test [11], in [12] and in test [13] was < 0.001 µM (active) in each case.
For the compound `CCOC(=O)C1=C(Nc2ccc(Cl)c(Cl)c2)OC/C1=N\NS(=O)(=O)c1ccc(C)cc1`, the GI50 in test [1] was 34.3 µM (inactive); in test [2], 37.5 µM (inactive); in [3], > 100 µM (inactive); in test [14], 39.5 µM (inactive); in test [4], 36.7 µM (inactive); in test [15] it was 33.5 µM (inactive). For the same compound, the GI50 in [16] was 73.3 µM (inactive); in [5], 44.2 µM (inactive); in test [6] it was 21.3 µM (inactive); in test [7] it was 42.9 µM (inactive); in test [18] it was 49.5 µM (inactive); in [10] it was 44.4 µM (inactive). For the same compound, the GI50 is 42.5 µM (inactive) in test [11], 27.5 µM (inactive) in [12] and 34.7 µM (inactive) in test [13].
In the case of `O=C1c2cccc([N+](=O)[O-])c2C(=O)c2nccnc21`, the GI50 was 1.46 µM (inactive) in [1]; 1.47 µM (inactive) in test [2]; 1.78 µM (inactive) in test [3]; 2.62 µM (inactive) in [15]; 1.57 µM (inactive) in [16]; 7.1 µM (inactive) in test [17]. Besides, the GI50 in test [5] is 4.86 µM (inactive); in [6], 1.91 µM (inactive); in test [7], 0.25 µM (active); in test [18], 1.87 µM (inactive); in test [8], 2.25 µM (inactive); in test [9], 1.47 µM. The GI50 in test [10] is 5.32 µM (inactive); in test [11], 2.06 µM (inactive); in test [12], 2.54 µM (inactive); in [13], 1.25 µM (inactive).
`CCCN(CCC)c1c([N+](=O)[O-])cc(S(N)(=O)=O)cc1[N+](=O)[O-]` [ORYZALIN]: the GI50 in test [1] was 14.6 µM (inactive); in [2] it was 19.7 µM (inactive); in [3], 16.7 µM (inactive); in test [14], 17.8 µM (inactive); in test [4], 17.2 µM (inactive); in [15] it was 18.5 µM (inactive). Also, the GI50 in [16] was 16.9 µM (inactive); in test [5], 13.6 µM (inactive); in test [6], 13.5 µM (inactive); in [7] it was 19.3 µM (inactive); in test [18] it was 16.9 µM (inactive); in test [8], 18.5 µM (inactive). Besides, the values for the GI50 in test [9], in test [12] and in [13] were 17.5 µM, 16.8 µM (inactive) and 16.1 µM (inactive), respectively.
With `O=C1C(c2ccccc2)=C(c2ccccc2)C(c2ccc(Sc3ccc(C4=C(c5ccccc5)C(=O)C(c5ccccc5)=C4c4ccccc4)cc3)cc2)=C1c1ccccc1`, the GI50 in test [1] was > 100 µM (inactive); in [2] it was 72.9 µM (inactive); in test [3], > 100 µM (inactive); in test [14], > 100 µM (inactive); in [4], 60.7 µM (inactive); in [16], > 100 µM (inactive). Besides, the GI50 in [17], in test [5], in test [6], in test [7], in test [18] and in test [8] was > 100 µM (inactive) throughout. The concentration for 50% growth inhibition (GI50) was more than 100 µM in [9]; > 100 µM (inactive) in test [10]; > 100 µM (inactive) in [11]; > 100 µM (inactive) in [12]; > 100 µM (inactive) in test [13].
Consider `CC(CCC[C@H](C)CO)[C@H]1[C@@H](O)C(O)C2[C@@H]3C[C@@H](O)C4(O)C[C@@H](O)CC[C@]4(C)C3CC[C@@]21C` (stereo partly specified), for which the GI50 in test [1], in test [2], in test [3], in test [14], in test [4] and in [15] was > 100 µM (inactive) each time. In addition, the GI50 is > 100 µM (inactive) in test [16]; 87.3 µM (inactive) in test [17]; > 100 µM (inactive) in [5]; 31.8 µM (inactive) in [6]; > 100 µM (inactive) in test [7]; > 100 µM (inactive) in test [18]. In addition, the GI50 in test [8] was > 100 µM (inactive); in test [9] it was more than 100 µM; in [11], > 100 µM (inactive); in [12], 40.9 µM (inactive); in [13], > 100 µM (inactive).
With `CCN(CC)CCOc1ccc(CCc2cc(OC)c(OC)c(OC)c2)cc1`, the GI50 in [1] was 38.5 µM (inactive); in test [2] it was 81.7 µM (inactive); in test [3], 37.1 µM (inactive); in [14] it was 35.3 µM (inactive); in test [4], 22.6 µM (inactive); in test [16], 17.5 µM (inactive). Moreover, the GI50 was 20.6 µM (inactive) in test [17]; 53.2 µM (inactive) in test [5]; 27.8 µM (inactive) in test [6]; 15.6 µM (inactive) in [7]; 45.7 µM (inactive) in test [18]; 17.5 µM (inactive) in [8]. In addition, the GI50 is 30.7 µM in [9], 22 µM (inactive) in test [10], 30.5 µM (inactive) in test [11] and 64.1 µM (inactive) in [12].
As for `O=C(O)c1ccc(C2C(=O)N[C@@H]3CCC[C@H]23)cc1` (stereo partly specified), the GI50 in test [1], in test [2], in test [3], in [14], in [4] and in test [15] was > 100 µM (inactive) throughout. The GI50 in [16], in test [5], in [6], in test [7], in test [18] and in test [8] was > 100 µM (inactive) throughout. Also, the GI50 was more than 100 µM in [9]; > 100 µM (inactive) in [10]; > 100 µM (inactive) in test [11]; > 100 µM (inactive) in test [12]; > 100 µM (inactive) in test [13].
Take `CCOc1ccccc1/N=N/c1c(-c2ccccc2)nn(C(=O)CC(=O)Nc2cccc(Cl)c2)c1-c1ccccc1`: the GI50 in [1] was 44.6 µM (inactive); in test [2], 62.1 µM (inactive); in test [3], 89.1 µM (inactive); in test [14], 31.8 µM (inactive); in test [4], 72.9 µM (inactive); in test [15] it was 26.2 µM (inactive). Besides, the GI50 was > 100 µM (inactive) in [16]; 50.7 µM (inactive) in test [17]; 43.1 µM (inactive) in [5]; 32.2 µM (inactive) in test [6]; 52.2 µM (inactive) in test [7]; 24.7 µM (inactive) in [18]. In addition, the GI50 is 30 µM (inactive) in test [8], > 100 µM (inactive) in test [11], 37.8 µM (inactive) in [12] and 61.8 µM (inactive) in test [13].
For `COc1ccccc1/C=C(\NC(=O)c1ccccc1)c1nc2ccccc2[nH]1`, the GI50 in [1] was 50.8 µM (inactive); in test [2], 53.7 µM (inactive); in test [3], 40.1 µM (inactive); in test [14], 32.6 µM (inactive); in test [16] it was 39.8 µM (inactive); in test [17] it was 28.9 µM (inactive). Also, the GI50 in [5] is 87.3 µM (inactive); in test [6], 32.9 µM (inactive); in test [7], 23.3 µM (inactive); in test [18], 44.5 µM (inactive); in test [8] it was 44.1 µM (inactive); in test [9], more than 100 µM. The GI50 in [10] is 56 µM (inactive); in test [11], 39 µM (inactive); in test [12], 40.6 µM (inactive); in test [13], 33.2 µM (inactive).

These data come from ChEMBL document CHEMBL1201862, “PubChem BioAssay data set” (2004).
